Test results taken from the NIST ThermoML archive (doi:10.1021/je050074w).

Experiment: an = mass per volume of the nth substance listed, in kg/m3
Conditions: Wilhelmy plate method

CCCCCCCCCCCCOS(=O)(=O)[O-].[Na+] [sodium dodecyl sulfate] + O
surface tension liquid-gas [mN/m]
Conditions | a1 = 0.00627 | a1 = 0.0157 | a1 = 0.0273 | a1 = 0.0338
288.15 K | 71.99 | 65.28 | 64.13 | 69.24
289.15 K | 71.91 | 65.17 | 64.05 | 69.1
290.15 K | 71.74 | 65 | 63.88 | 68.89
291.15 K | 71.58 | 64.83 | 63.72 | 68.76
292.15 K | 71.41 | 64.67 | 63.56 | 68.59
293.15 K | 71.24 | 64.48 | 63.37 | 68.45
294.15 K | 71.07 | 64.32 | 63.19 | 68.28
295.15 K | 70.89 | 64.17 | 63.02 | 68.11
296.15 K | 70.76 | 64.03 | 62.88 | 67.97
297.15 K | 70.59 | 63.86 | 62.74 | 67.78
298.15 K | 70.43 | 63.71 | 62.6 | 67.63
299.15 K | 70.29 | 63.57 | 62.49 | 67.44
300.15 K | 70.16 | 63.41 | 62.36 | 67.29
301.15 K | 70.01 | 63.26 | 62.25 | 67.11
302.15 K | 69.84 | 63.08 | 62.11 | 66.95
303.15 K | 69.68 | 62.94 | 62.01 | 66.77
304.15 K | 69.53 | 62.76 | 61.9 | 66.61
305.15 K | 69.39 | 62.66 | 61.83 | 66.42
306.15 K | 69.23 | 62.52 | 61.72 | 66.25
307.15 K | 69.08 | 62.32 | 61.62 | 66.04
308.15 K | 68.94 | 62.16 | 61.54 | –
